In brackets after ≈: the same amount, converted by molar mass.
Details: buffer; pH 7.4; 200.0 µM

Compound | solubility kinetic
CC1CCCC(C)N1C(=O)COC(=O)CCC1CCCC1 (stereo not given) | 30.1 µg/mL (≈ 102 µM)
COc1ccc(NC(=O)CN2C(=O)COc3ccc(C)cc32)cc1 | 3.3 µg/mL (≈ 10.1 µM)
CSc1ncccc1C(=O)NC1CCN(Cc2ccccc2)CC1 | 48.1 µg/mL (≈ 141 µM)
CC(=O)c1ccc(NC(=O)c2cc(C)no2)cc1 | 13.3 µg/mL (≈ 54.5 µM)
CCC(=O)NC(c1ccc(C)cc1)c1ccc2cccnc2c1O (stereo not given) | 1.6 µg/mL (≈ 4.99 µM)
O=C(Nc1ccc(Cl)c(Cl)c1)Nc1ccon1 | 1.6 µg/mL (≈ 5.88 µM)
COc1ccc(C(=O)Nc2ccc3nc(C)sc3c2)cc1OC | 3 µg/mL (≈ 9.14 µM)
CN(C)c1nc2c(c(=O)[nH]c(=O)n2C)n1CCCc1ccccc1 | > 49.1 µg/mL
CS(=O)(=O)N1CCCC(C(=O)Nc2ccccc2Cl)C1 (stereo not given) | > 47.5 µg/mL
Cc1c(O)ccc2c(CN3CCOCC3)cc(=O)oc12 | > 41.3 µg/mL
COC(=O)c1sc(N(C)C)c(C#N)c1-c1ccccc1 | 1.8 µg/mL (≈ 6.29 µM)
Cc1nc2ccc(NC(=O)c3ccco3)cc2nc1C | > 40.1 µg/mL
CN(CC(=O)Nc1cccc([N+](=O)[O-])c1)S(=O)(=O)c1ccccc1 | > 52.4 µg/mL
O=S(=O)(NC1CCCCC1N1CCC(O)CC1)c1ccccc1 (stereo not given) | > 50.8 µg/mL
COc1ccc(NS(=O)(=O)c2ccc(C(=O)N3CCC(C)CC3)cc2)cc1 | > 58.3 µg/mL
Cc1ccc(NC(=O)C2CCCC2)cc1Cl | 3.7 µg/mL (≈ 15.6 µM)
COC(=O)c1ccc(NC(=S)NC2CC2)cc1 | > 37.5 µg/mL
Cc1ccc(O)c(CNc2cccc3cccnc23)c1 | 2.9 µg/mL (≈ 11 µM)
O=[N+]([O-])c1cccc(-c2csc(CS(=O)(=O)Cc3ccco3)n2)c1 | 0.6 µg/mL (≈ 1.65 µM)
CC1CCCC(C)N1C(=O)COC(=O)c1ccc(Br)c(S(=O)(=O)N2CCOCC2)c1 (stereo not given) | 74.2 µg/mL (≈ 147 µM)
Cc1ccc(C(C)C)cc1OCC(=O)Nc1ccccc1N1CCCC1 | < 0.4 µg/mL
O=C(Nc1cc(Cl)ccc1N1CCOCC1)C1CC1 | > 42.1 µg/mL
CC12CC3CC(C1)CC(C(=O)NNC(=O)c1ccncc1)(C3)C2 | > 47 µg/mL
CC(=O)N1CCc2cc(S(=O)(=O)NC3CCCCC3)ccc21 | 6.4 µg/mL (≈ 19.8 µM)

Compound | solubility kinetic
C=CCN1C(=O)c2ccccc2C1(O)Cc1ccccc1 (stereo not given) | 36.6 µg/mL (≈ 131 µM)
CN(C)CC(C)(C)CNCc1cc(=O)oc2ccc3ccccc3c12 | > 50.8 µg/mL
O=S(=O)(c1ccc(Br)cc1Cl)N1CCCN(c2ccc(C(F)(F)F)cn2)CC1 | 3 µg/mL (≈ 6.02 µM)
Cc1ccc(NC(=O)Cn2nc(C)c(S(=O)(=O)N(C)C)c2C)cc1 | > 52.6 µg/mL
O=C(CN1CCCC1c1cccs1)Nc1cc(S(=O)(=O)N2CCCC2)ccc1Cl (stereo not given) | 1.6 µg/mL (≈ 3.52 µM)
CCCN1CCC(NC(=S)Nc2cccc(Cl)c2Cl)CC1 | > 51.9 µg/mL
CC(=O)c1ccccc1OCCCOc1cccc2cccnc12 | 45.8 µg/mL (≈ 143 µM)
Cc1ccc(NC(=O)N2CCCCCC2)cc1 | > 34.8 µg/mL
O=C(O)Cn1c(=O)c2c(c3ccccc31)CCC2 | > 36.5 µg/mL
O=C(NC1CC(=O)c2sccc21)c1ccc(Cl)cc1Cl (stereo not given) | > 48.9 µg/mL
CC1CCCCN1C(=O)C1COc2ccccc2O1 (stereo not given) | 35.5 µg/mL (≈ 136 µM)
COc1cc(OC)cc(C(=O)NCC(=O)OC(C)C(=O)NC(C)C2CC3CCC2C3)c1 (stereo not given) | > 64.9 µg/mL
CC1CCCC(NC(=O)CSc2ncccn2)C1C (stereo not given) | > 41.9 µg/mL
COc1ccc([N+](=O)[O-])c(OC)c1C(=O)Nc1ccc(F)cc1F | 33.9 µg/mL (≈ 100 µM)
Cc1[nH]c2ccccc2c1/C=C/C(=O)c1ccncc1 | 0.7 µg/mL (≈ 2.67 µM)
c1ccc2nc3ccccc3nc2c1 | 12.3 µg/mL (≈ 68.3 µM)
COc1ccc(SCCC(=O)NCc2ccncc2)cc1 | > 45.4 µg/mL
Cc1noc(NS(=O)(=O)c2ccc(NC(=O)CC(C)C)cc2)c1C | > 52.7 µg/mL
NC(=O)c1ccccc1OCCOc1ccc(Br)cc1 | 5.1 µg/mL (≈ 15.2 µM)
COc1ccccc1Nc1nc(NCc2ccco2)nc(N)c1[N+](=O)[O-] | < 0.1 µg/mL
COc1cc2c(cc1OC)C(=S)NC1(CCCC1)C2 | 5.5 µg/mL (≈ 19.8 µM)
CCN(C(=O)COC(=O)c1cccnc1)c1cccc2ccccc12 | > 50.2 µg/mL
CSc1nc2ccc(NC(=O)COc3ccccc3F)cc2s1 | 2.2 µg/mL (≈ 6.31 µM)
CSc1ncccc1C(=O)OCC(=O)NC(C)C | > 40.2 µg/mL

Compound | solubility kinetic
CCCN1CNC(=S)N(c2ccc(C)cc2C)C1 | > 39.5 µg/mL
COc1cc(CN2CC=C(c3ccc(F)cc3)CC2)cc(OC)c1 | 10.4 µg/mL (≈ 31.8 µM)
O=C(NC(=O)c1ccccc1Cl)Nc1ccc(-c2cnco2)cc1 | < 0.2 µg/mL
COc1cc2c(cc1OC)C(c1ccccc1)NCC2 (stereo not given) | > 40.4 µg/mL
O=C(COC(=O)c1ccc(F)cc1)Nc1ccc(Cl)cn1 | 0.8 µg/mL (≈ 2.59 µM)
CCC(=O)Nc1nc2ccc([N+](=O)[O-])cc2s1 | 0.9 µg/mL (≈ 3.58 µM)
N/C(=N\OC(=O)c1ccc(F)cc1)c1ccc(Br)cc1 | 0.4 µg/mL (≈ 1.19 µM)
COc1cc(C)c(NC(=O)C(=S)NCc2ccccc2)cc1C | < 0.4 µg/mL
C[C@H](NC(=O)c1ccco1)C(=O)NC1CCCCCC1 | > 41.8 µg/mL
O=C(COC(=O)C1CCCC1)Nc1ncc(Cl)cc1Cl | > 47.6 µg/mL
O=C(Cn1cc([N+](=O)[O-])ccc1=O)N1CCCc2ccccc21 | > 47 µg/mL
COc1ccc(Oc2ccc(C(F)(F)F)cc2N)cc1 | 5.3 µg/mL (≈ 18.7 µM)
O=C(NC1CC2CCCC(C1)N2C(=O)Nc1ccccc1F)C1CC1 (stereo not given) | 16.2 µg/mL (≈ 46.9 µM)
COCCN(C(=O)COC(=O)Cc1c(C)nc2ccccc2c1C)c1c(N)n(CC(C)C)c(=O)[nH]c1=O | 64.2 µg/mL (≈ 125 µM)
CC(=O)CC(=O)C1C(=O)N(C)C(=O)N(C)C1=O | > 36 µg/mL
CC(=O)Nc1cccc(NC(=O)c2cccc3cccnc23)c1 | 19.2 µg/mL (≈ 62.9 µM)
CCN(CC)CCOC(=O)/C=C/c1ccccc1.Cl | 38.5 µg/mL
Cc1cc(NC(=O)CSCC(=O)NC(C)c2ccccc2)no1 (stereo not given) | > 50 µg/mL
COc1cccc(-c2nc(N)nc(SC)c2C#N)c1 | 0.6 µg/mL (≈ 2.2 µM)
CCCN1C2CCCC1CC(NC(=O)NC13CC4CC(CC(C4)C1)C3)C2 (stereo not given) | > 53.9 µg/mL
CCN(CC)C(=O)c1ccc(NC(=O)c2ccc3c(c2)NC(=O)CS3)cc1 | 6.2 µg/mL (≈ 16.2 µM)
C=CCN1C(=O)/C(=C/c2ccsc2)SC1=S | < 0.6 µg/mL
COc1ccc(CN2CSC(=S)N(Cc3ccc(OC)cc3)C2)cc1 | 0.8 µg/mL (≈ 2.14 µM)
COc1ccc(C2CC(C)(c3ccc(OC)cc3)Nc3ccccc3N2)cc1 (stereo not given) | < 0.4 µg/mL

Compound | solubility kinetic
CC1(C)Cc2nc3sc4c(NCCO)ncnc4c3cc2CS1 | > 52 µg/mL
CC1(C)Cc2cccc(C(=O)NC3CCN(Cc4ccccc4)CC3)c2O1 | 53.2 µg/mL (≈ 146 µM)
O=C(CN1C(=O)c2ccccc2C1=O)Nc1ccccc1 | 18.9 µg/mL (≈ 67.4 µM)
CC(=O)Nc1ccc(NC(=O)Nc2ccccc2)cc1 | 6.3 µg/mL (≈ 23.4 µM)
COc1cccc(C(=O)N2CCN=C2SC)c1 | 35.1 µg/mL (≈ 140 µM)
O=C(O)c1cc(NC(=O)C2CCCO2)cc(C(=O)O)c1 (stereo not given) | > 41.9 µg/mL
CCOC(=O)NN1C(=O)c2ccccc2NC1c1ccccn1 (stereo not given) | > 46.8 µg/mL
NC(=O)c1c(NC(=O)c2cccnc2)sc2c1CCCCC2 | 6 µg/mL (≈ 19 µM)
COc1ccc2oc(C(=O)NC(C)(C)C)c(C)c2c1 | 1.8 µg/mL (≈ 6.89 µM)
CCOC(=O)CNC(=O)CSc1nccn1Cc1ccco1 | > 48.5 µg/mL
O=C1C2CCCN2C(=S)N1c1ccc(Cl)cc1 (stereo not given) | > 40 µg/mL
O=C(COc1ccc(Br)cc1)N1CCNC1=O | > 44.9 µg/mL
C#Cc1cccc(C(=O)N2CCCC(Nc3cccc(F)c3)C2)c1 (stereo not given) | 39.5 µg/mL (≈ 123 µM)
Cc1ccc(C(=O)C(C)OC(=O)c2nc(Cl)ccc2Cl)cc1 (stereo not given) | > 50.7 µg/mL
O=Cc1cccn1-c1ccc2ccccc2c1 | 15 µg/mL (≈ 67.8 µM)
COc1cccc(-c2nc(CCl)cs2)c1.Cl | 22.4 µg/mL
Cc1cc(C(=O)N2CCC(Cc3ccccc3)CC2)no1 | 36.7 µg/mL (≈ 129 µM)
O=C(Nc1ccccc1F)c1cc(-c2ccco2)nc2ccccc12 | 0.7 µg/mL (≈ 2.11 µM)
CN=C(NC1CCCCC1)c1ccc([N+](=O)[O-])cc1 | > 39.2 µg/mL
CCC(=O)Nc1ccc(C(=O)COC(=O)Cc2ccsc2)cc1 | 15.9 µg/mL (≈ 48 µM)
COc1ccc(C(C)=O)cc1CSc1nnc(-c2ccncc2)n1C | > 53.2 µg/mL
CCCCN(C)C(=O)c1ccc2c(c1)S(=O)(=O)c1ccccc1C2=O | > 53.6 µg/mL
Cc1ccn2cc(-c3ccc(Br)cc3)nc2c1 | 1.2 µg/mL (≈ 4.18 µM)
COc1ccc(C2=NOC(C(=O)Nc3cccc(O)c3)C2)cc1 (stereo not given) | 22.8 µg/mL (≈ 73 µM)

Compound | solubility kinetic
Cn1ccc(C(=O)Nc2ccc3c(c2)OCCO3)n1 | > 38.9 µg/mL
CN1CCCN(C(=O)c2ccc(Cl)cc2)CC1 | 32.9 µg/mL (≈ 130 µM)
CCC(CC)C(=O)c1c[nH]c(C(=O)NCc2ccccc2)c1 | 2.2 µg/mL (≈ 7.37 µM)
O=C(CN1C(=O)NC2(CCCCCC2)C1=O)c1ccccc1 | > 45.1 µg/mL
Cc1cc(Oc2ccc([N+](=O)[O-])cc2)nc(N2CCOCC2)n1 | 0.4 µg/mL (≈ 1.26 µM)
CN1C(=O)c2cccc3c(S(=O)(=O)N(C)C)ccc1c23 | 14 µg/mL (≈ 48.2 µM)
CC(C)[C@H](NS(=O)(=O)c1ccccc1)C(=O)Nc1nccs1 | 7.2 µg/mL (≈ 21.2 µM)
Cc1ccc(CNC(=O)C2CCCN(c3cnccn3)C2)cc1 (stereo not given) | > 46.6 µg/mL
CCNc1cc(N2CCN(C)CC2)ccc1[N+](=O)[O-] | > 39.6 µg/mL
CCOc1ncccc1C(=O)Nc1ccc2c(c1)OCCCO2 | > 47.2 µg/mL
Cc1cc(S(=O)(=O)NCCCn2ccnc2)c(C)cc1Cl | > 49.2 µg/mL
COc1ccc(/C(C)=N/N2CCOCC2)c(O)c1 | > 37.5 µg/mL
O=C(COc1ccccc1)NS(=O)(=O)c1ccccc1 | 38.1 µg/mL (≈ 131 µM)
Cc1csc(=O)n1CC(=O)Nc1nc2ccccc2s1 | > 45.8 µg/mL
CC(C)(C)C(=O)N1CCN(c2nc3ccc(Cl)cc3s2)CC1 | 2.3 µg/mL (≈ 6.81 µM)
Cn1ncc(Br)c1C(=O)N1CCCC1 | > 38.7 µg/mL
Cc1ccc(OCC(=O)Nc2ccon2)c([N+](=O)[O-])c1 | 4.5 µg/mL (≈ 16.2 µM)
O=C(c1ccccc1)N1CCN(S(=O)(=O)c2cccs2)CC1 | > 50.5 µg/mL
O=C(CCNS(=O)(=O)c1cccc(C(F)(F)F)c1)NCc1ccco1 | > 56.5 µg/mL
CCN(C(=O)COC(=O)c1cc(OC)ccc1Br)C1CCS(=O)(=O)C1 (stereo not given) | > 65.1 µg/mL
COC(=O)/C(=N\OCc1ccc(C#N)cc1)c1c(C)nn(C)c1C | > 49 µg/mL
O=C(c1cccc(S(=O)(=O)Nc2ccc(Br)cc2)c1)N1CCC1 | 58.9 µg/mL (≈ 149 µM)
O=C(COC(=O)c1cccs1)NCCCc1ccccc1 | 20.1 µg/mL (≈ 66.3 µM)
COC(=O)c1ccc(S(=O)(=O)N2CCC(C(N)=O)CC2)n1C | > 49.4 µg/mL

— PubChem BioAssay AID1996
